# Tests used:
# [1] = molecular target: T1, Thymidine kinase, cytosolic (Homo sapiens) (UniProt P04183)
# T1 sequence (whole entry): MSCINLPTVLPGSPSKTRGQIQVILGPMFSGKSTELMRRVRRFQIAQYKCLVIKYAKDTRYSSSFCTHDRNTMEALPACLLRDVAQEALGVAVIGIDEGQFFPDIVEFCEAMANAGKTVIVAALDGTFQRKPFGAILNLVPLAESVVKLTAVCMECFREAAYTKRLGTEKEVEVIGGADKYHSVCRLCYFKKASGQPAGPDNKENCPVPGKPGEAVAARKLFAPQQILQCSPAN
# Description: Rate of phosphorylation in the presence of 1% DMSO using Phosphoryl transfer assay in recombinant human cytosolic thymidine kinase 1 at 10 uM
# [2] = molecular target: T1, Thymidine kinase, cytosolic (Homo sapiens); remark: listed apart in the source
# Description: Rate of phosphorylation in the presence of 1% DMSO using Phosphoryl transfer assay in recombinant human cytosolic thymidine kinase 1 at 5 uM
# [3] = molecular target: Thymidine kinase 2, mitochondrial (Homo sapiens) (UniProt O00142)
# Thymidine kinase 2, mitochondrial (Homo sapiens), sequence (O00142 whole entry, looked up): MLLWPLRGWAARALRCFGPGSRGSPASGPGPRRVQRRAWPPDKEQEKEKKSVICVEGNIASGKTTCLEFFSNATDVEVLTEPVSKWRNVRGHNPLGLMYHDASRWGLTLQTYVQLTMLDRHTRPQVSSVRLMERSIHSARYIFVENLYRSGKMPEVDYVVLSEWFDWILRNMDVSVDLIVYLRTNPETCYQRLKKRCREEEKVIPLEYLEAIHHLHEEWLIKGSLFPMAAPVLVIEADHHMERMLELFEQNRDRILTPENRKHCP
SMILES,Rate of phosphorylation [1],Rate of phosphorylation [2],Rate of phosphorylation [3]
Cc1cn([C@H]2C[C@H](O)[C@@H](CO)O2)c(=O)n(CCCC2CC2)c1=O,0.3,0.27,0.002
Cc1cn([C@H]2C[C@H](O)[C@@H](CO)O2)c(=O)n(CCC2CC2)c1=O,0.39,0.42,0.002
Cc1cn([C@H]2C[C@H](O)[C@@H](CO)O2)c(=O)n(CCCCCCCC2CC2)c1=O,0.11,0.15,< 0.001
Cc1cn([C@H]2C[C@H](O)[C@@H](CO)O2)c(=O)n(CCC2CC2CC(O)CO)c1=O (some centres undefined),0.45,0.49,0.002
Cc1cn([C@H]2C[C@H](O)[C@@H](CO)O2)c(=O)n(CCCCC2CC2)c1=O,0.13,0.17,0.003
Cc1cn([C@H]2C[C@H](O)[C@@H](CO)O2)c(=O)n(CCCCCC2CC2)c1=O,0.41,0.57,0.001
Cc1cn([C@H]2C[C@H](O)[C@@H](CO)O2)c(=O)[nH]c1=O,1,1,1
Cc1cn([C@H]2C[C@H](O)[C@@H](CO)O2)c(=O)n(CCCCCCC2CC2)c1=O,0.28,0.31,< 0.001
Cc1cn([C@H]2C[C@H](O)[C@@H](CO)O2)c(=O)n(CCCCCCCC2CC2CC(O)CO)c1=O (some centres undefined),0.13,0.13,< 0.001
Cc1cn([C@H]2C[C@H](O)[C@@H](CO)O2)c(=O)n(CCCC2CC2CC(O)CO)c1=O (some centres undefined),0.4,0.43,0.004
Cc1cn([C@H]2C[C@H](O)[C@@H](CO)O2)c(=O)n(CCCCCC2CC2CC(O)CO)c1=O (some centres undefined),0.41,0.39,0.002
Cc1cn([C@H]2C[C@H](O)[C@@H](CO)O2)c(=O)n(CCCCC2CC2CC(O)CO)c1=O (some centres undefined),0.21,0.21,0.003
Cc1cn([C@H]2C[C@H](O)[C@@H](CO)O2)c(=O)n(CCCCCCC2CC2CC(O)CO)c1=O (some centres undefined),0.32,0.22,0.002
